This experiment concerns the target dA (isolated discontinuous domain A of LAO) (Salmonella enterica, UniProt P02911, DEL114-206). The experiment is described as follows: biochemical.

The structures appear in SMILES notation.

By Kd is commonly meant the constant that tells how readily two partners part at equilibrium. For `N=C(N)NCCC[C@H](N)C(=O)O` [L-arginine], the Kd came out at 131 µM.
